US12172995B2, “Substituted indole and indazole compounds” (BRISTOL-MYERS SQUIBB COMPANY, priority 2018, dated 2024)

Columns and labels:
Type in all cases: cell-based
[1] = target: T1, human TLR7 (Homo sapiens, UniProt Q9NYK1); assay: TLR7 inhibition reporter assay (HEK-Blue SEAP); conditions: HEK-Blue cells overexpressing human TLR7, stimulated with gardiquimod 7.5 μM, 22 hour incubation
T1 construct: host or cells: HEK-Blue cells
T1 sequence (Q9NYK1 27-1049): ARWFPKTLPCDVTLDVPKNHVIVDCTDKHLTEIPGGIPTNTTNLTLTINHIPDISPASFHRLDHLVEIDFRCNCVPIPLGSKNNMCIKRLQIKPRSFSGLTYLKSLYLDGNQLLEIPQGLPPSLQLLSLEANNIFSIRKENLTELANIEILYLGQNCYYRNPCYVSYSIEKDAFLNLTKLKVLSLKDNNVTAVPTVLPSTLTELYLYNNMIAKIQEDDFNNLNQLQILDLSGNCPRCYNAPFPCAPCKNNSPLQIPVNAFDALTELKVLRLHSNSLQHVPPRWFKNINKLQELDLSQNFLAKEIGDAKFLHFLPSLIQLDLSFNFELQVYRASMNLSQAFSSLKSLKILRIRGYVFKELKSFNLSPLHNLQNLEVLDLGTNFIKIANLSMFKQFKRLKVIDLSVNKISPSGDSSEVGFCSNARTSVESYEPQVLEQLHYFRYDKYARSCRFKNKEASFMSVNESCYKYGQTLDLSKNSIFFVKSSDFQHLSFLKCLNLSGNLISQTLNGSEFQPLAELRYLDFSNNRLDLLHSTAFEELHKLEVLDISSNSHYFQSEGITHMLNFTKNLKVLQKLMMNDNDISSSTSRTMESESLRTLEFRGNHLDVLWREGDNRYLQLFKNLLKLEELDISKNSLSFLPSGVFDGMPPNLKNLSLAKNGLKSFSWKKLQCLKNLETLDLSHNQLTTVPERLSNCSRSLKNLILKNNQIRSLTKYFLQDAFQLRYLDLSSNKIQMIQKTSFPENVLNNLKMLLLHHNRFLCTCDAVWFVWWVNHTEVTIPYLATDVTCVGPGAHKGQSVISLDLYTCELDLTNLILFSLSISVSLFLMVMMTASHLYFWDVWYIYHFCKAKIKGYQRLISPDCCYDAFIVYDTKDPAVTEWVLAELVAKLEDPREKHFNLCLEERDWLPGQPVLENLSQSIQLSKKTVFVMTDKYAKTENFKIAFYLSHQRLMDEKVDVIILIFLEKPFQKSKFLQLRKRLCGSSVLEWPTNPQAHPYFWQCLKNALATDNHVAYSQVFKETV
Outline: (§1)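 HEK-Blue cells overexpressing the receptor, with an NF-κB/AP-1-driven SEAP reporter, were pre-treated with compound (0.05 nM to 50 μM) for 30 min at room temperature. Stimulation used gardiquimod 7.5 μM (TLR7), R848 15.9 μM (TLR8) or ODN2006 5 nM (TLR9), followed by 22 h at 37 °C.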

[2] = target: T2, human TLR8 (Homo sapiens, UniProt Q9NR97); assay: TLR8 inhibition reporter assay (HEK-Blue SEAP); conditions: HEK-Blue cells overexpressing human TLR8, stimulated with R848 15.9 μM, 22 hour incubation
T2 construct: host or cells: HEK-Blue cells
T2 sequence (Q9NR97 27-1041): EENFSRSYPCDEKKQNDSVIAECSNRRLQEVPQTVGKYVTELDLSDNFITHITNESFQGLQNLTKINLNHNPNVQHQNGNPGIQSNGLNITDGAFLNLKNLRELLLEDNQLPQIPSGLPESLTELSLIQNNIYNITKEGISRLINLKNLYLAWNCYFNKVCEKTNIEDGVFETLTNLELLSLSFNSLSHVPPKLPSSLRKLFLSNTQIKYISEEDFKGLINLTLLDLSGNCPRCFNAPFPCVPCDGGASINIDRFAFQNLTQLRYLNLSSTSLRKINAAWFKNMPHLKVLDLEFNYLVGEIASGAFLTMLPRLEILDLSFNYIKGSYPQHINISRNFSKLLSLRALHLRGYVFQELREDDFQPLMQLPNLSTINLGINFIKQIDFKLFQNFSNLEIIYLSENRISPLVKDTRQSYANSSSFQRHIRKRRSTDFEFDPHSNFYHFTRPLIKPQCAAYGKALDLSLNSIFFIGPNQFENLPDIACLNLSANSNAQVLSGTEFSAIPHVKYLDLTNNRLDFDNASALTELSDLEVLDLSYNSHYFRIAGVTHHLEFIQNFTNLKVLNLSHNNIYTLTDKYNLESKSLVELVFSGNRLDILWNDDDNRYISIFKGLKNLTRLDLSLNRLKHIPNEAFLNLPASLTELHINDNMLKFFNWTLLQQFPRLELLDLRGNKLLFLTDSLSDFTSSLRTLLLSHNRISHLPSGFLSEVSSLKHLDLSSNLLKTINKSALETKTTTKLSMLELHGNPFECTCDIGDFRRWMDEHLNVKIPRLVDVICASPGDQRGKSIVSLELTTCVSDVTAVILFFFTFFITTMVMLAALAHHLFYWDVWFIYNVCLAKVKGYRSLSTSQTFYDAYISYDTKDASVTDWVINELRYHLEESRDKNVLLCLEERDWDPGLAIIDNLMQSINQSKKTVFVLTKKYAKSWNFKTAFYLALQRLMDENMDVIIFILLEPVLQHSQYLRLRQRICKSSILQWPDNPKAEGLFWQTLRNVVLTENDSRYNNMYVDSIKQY
Outline: as §1

[3] = target: T3, human TLR9 (Homo sapiens, UniProt Q9NR96); assay: TLR9 inhibition reporter assay (HEK-Blue SEAP); conditions: HEK-Blue cells overexpressing human TLR9, stimulated with ODN2006 5 nM, 22 hour incubation
T3 construct: host or cells: HEK-Blue cells
T3 sequence (Q9NR96 26-1032): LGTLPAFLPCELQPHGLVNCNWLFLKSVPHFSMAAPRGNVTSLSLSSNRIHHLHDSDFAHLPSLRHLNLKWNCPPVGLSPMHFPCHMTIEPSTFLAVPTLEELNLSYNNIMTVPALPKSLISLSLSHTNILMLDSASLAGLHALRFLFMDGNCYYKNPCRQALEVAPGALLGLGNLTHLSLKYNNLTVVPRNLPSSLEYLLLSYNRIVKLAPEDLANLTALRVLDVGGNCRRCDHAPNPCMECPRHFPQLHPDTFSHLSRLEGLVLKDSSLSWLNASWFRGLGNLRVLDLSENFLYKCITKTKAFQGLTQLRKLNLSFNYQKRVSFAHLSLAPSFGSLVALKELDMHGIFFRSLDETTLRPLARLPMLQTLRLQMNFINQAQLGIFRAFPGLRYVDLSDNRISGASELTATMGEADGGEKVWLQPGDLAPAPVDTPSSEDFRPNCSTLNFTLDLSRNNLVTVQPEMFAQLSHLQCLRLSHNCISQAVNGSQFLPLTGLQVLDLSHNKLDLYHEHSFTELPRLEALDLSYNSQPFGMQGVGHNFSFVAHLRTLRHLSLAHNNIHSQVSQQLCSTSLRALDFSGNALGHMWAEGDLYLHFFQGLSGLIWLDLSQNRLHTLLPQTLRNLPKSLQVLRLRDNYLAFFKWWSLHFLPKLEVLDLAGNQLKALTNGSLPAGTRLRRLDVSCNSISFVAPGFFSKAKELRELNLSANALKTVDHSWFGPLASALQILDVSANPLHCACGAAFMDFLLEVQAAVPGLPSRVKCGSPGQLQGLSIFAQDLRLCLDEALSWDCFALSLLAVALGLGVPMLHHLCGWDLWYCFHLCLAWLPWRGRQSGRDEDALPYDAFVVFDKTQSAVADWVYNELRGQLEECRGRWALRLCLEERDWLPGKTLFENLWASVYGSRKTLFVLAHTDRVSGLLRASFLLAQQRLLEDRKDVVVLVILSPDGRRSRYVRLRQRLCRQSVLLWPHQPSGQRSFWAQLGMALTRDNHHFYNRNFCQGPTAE
Outline: as §1

| SMILES | IC50 [1] [nM] | IC50 [2] [nM] | IC50 [3] [nM] |
| --- | --- | --- | --- |
| Cc1cc2c(OC3CCN(C(=O)CN(C)C)CC3)n[nH]c2cc1-c1cc(C)c2ncnn2c1 [Example 170, 2-(dimethylamino)-1-(4-((5-methyl-6-(8-methyl-[1,2,4]triazolo[1,5-a]pyridin-6-yl)-1H-indazol-3-yl)oxy)piperidin-1-yl)ethan-1-one] | 13.3 | 3 | 5730 |
| Cc1cc2c(OC3CCN(C)CC3)n[nH]c2cc1-c1cc(C)c2ncnn2c1 [Example 171, 8-methyl-6-(5-methyl-3-((1-methylpiperidin-4-yl)oxy)-1H-indazol-6-yl)-[1,2,4]triazolo[1,5-a] pyridine] | 8.2 | 0.1 | 2770 |
| Cc1cc2c(OCCN(C)C)n[nH]c2cc1-c1cc(C)c2ncnn2c1 [Example 172, N,N-dimethyl-2-((5-methyl-6-(8-methyl-[1,2,4]triazolo[1,5-a]pyridin-6-yl)-1H-indazol-3-yl)oxy)ethan-1-amine] | 37.2 | 1.4 | 5070 |
| Cc1cc(-c2cc(C)c3ncnn3c2)cc2[nH]nc(OCCN(C)C)c12 [Example 173, N,N-dimethyl-2-((4-methyl-6-(8-methyl-[1,2,4]triazolo[1,5-a]pyridin-6-yl)-1H-indazol-3-yl)oxy)ethan-1-amine] | 18.9 | 8 | 1850 |
| Cc1cc(-c2cc(C)c3ncnn3c2)cc2[nH]nc(OC3CCNCC3)c12 [Example 174, 8-methyl-6-(4-methyl-3-(piperidin-4-yloxy)-1H-indazol-6-yl)-[1,2,4]triazolo[1,5-a]pyridine] | 1.8 | 1.4 | 438 |
| Cc1cc(-c2cc(C)c3ncnn3c2)cc2[nH]nc(OC3CCN(C(=O)CN(C)C)CC3)c12 [Example 175, 2-(dimethylamino)-1-(4-((4-methyl-6-(8-methyl-[1,2,4]triazolo[1,5-a]pyridin-6-yl)-1H-indazol-3-yl)oxy)piperidin-1-yl)ethan-1-one] | 5.1 | 10.6 | 1630 |
| Cc1cc(-c2cc(C)c3ncnn3c2)cc2[nH]nc(OC3CCN(CC(=O)N(C)C)CC3)c12 [Example 176, N,N-dimethyl-2-(4-((4-methyl-6-(8-methyl-[1,2,4]triazolo[1,5-a]pyridin-6-yl)-1H-indazol-3-yl)oxy)piperidin-1-yl)acetamide] | 12.5 | 3.8 | 4920 |
| Cc1cc(-c2cc(C)c3ncnn3c2)cc2[nH]nc(OC3CCN(C)CC3)c12 [Example 177, 8-methyl-6-(4-methyl-3-((1-methylpiperidin-4-yl)oxy)-1H-indazol-6-yl)-[1,2,4]triazolo[1,5-a]pyridine] | 2.7 | 0.5 | 928 |
| Cc1cc(-c2cc(C)c3ncnn3c2)cc2[nH]nc(OC3CCN(C4CCOCC4)CC3)c12 [Example 178, 8-methyl-6-(4-methyl-3-((1-(tetrahydro-2H-pyran-4-yl)piperidin-4-yl)oxy)-1H-indazol-6-yl)-[1,2,4]triazolo[1,5-a]pyridine] | 6.1 | 0.5 | 1620 |
| Cc1cc(-c2cc(C)c3ncnn3c2)cc2[nH]nc(OC3CCC(NCCS(C)(=O)=O)CC3)c12 (stereo not drawn) [Example 187, 4-((4-methyl-6-(8-methyl-[1,2,4]triazolo[1,5-a]pyridin-6-yl)-1H-indazol-3-yl)oxy)-N-(2-(methylsulfonyl)ethyl)cyclohexan-1-amine] | 11.3 | 4.9 | 1820 |
| Cc1cc(-c2cc(C)c3ncnn3c2)cc2[nH]nc(OC3CCC(NCCS(C)(=O)=O)CC3)c12 (stereo not drawn) [Example 188, 4-((4-methyl-6-(8-methyl-[1,2,4]triazolo[1,5-a]pyridin-6-yl)-1H-indazol-3-yl)oxy)-N-(2-(methylsulfonyl)ethyl)cyclohexan-1-amine] | 4 | 2.3 | 4340 |
| Cc1cc(-c2cc(C)c3ncnn3c2)cc2[nH]nc(OC3CCN(Cc4cn(C)nn4)CC3)c12 [Example 193, 8-methyl-6-(4-methyl-3-((1-((1-methyl-1H-1,2,3-triazol-4-yl)methyl)piperidin-4-yl)oxy)-1H-indazol-6-yl)-[1,2,4]triazolo[1,5-a]pyridine] | 13.2 | 1.6 | 3730 |
| Cc1cc(-c2cc(C)c3ncnn3c2)cc2[nH]nc(OC3CCN(CC#N)CC3)c12 [Example 194, 2-(4-((4-methyl-6-(8-methyl-[1,2,4]triazolo[1,5-a]pyridin-6-yl)-1H-indazol-3-yl)oxy)piperidin-1-yl)acetonitrile] | 7.2 | 1.9 | 1660 |
| CCc1cc(-c2cc(C)c3ncnn3c2)cc2[nH]nc(OC3CCNCC3)c12 [Example 195, 6-(4-ethyl-3-(piperidin-4-yloxy)-1H-indazol-6-yl)-8-methyl-[1,2,4]triazolo[1,5-a]pyridine] | 3.7 | 0.8 | 6180 |
